Data as given in patent US20260103665A1, “Synovium-on-a-Chip” (New York University, priority 2022, published 2026).
Entries after “also recorded” stand apart in the source; their conditions may differ.

What was measured:
[1] = tested on: monocytes in the RA chip; assay: monocyte migration in the RA chip, live imaging microscopy; type: cell-based, human; details: RA chip primed with TNF-α versus not primed
Source text: Following the established inflammation in the RA chip, work pivoted to whether the RA inflammation can be maintained on-chip for a long period. The RA chip cultured for over 4 days and quantified inflammatory cytokines secretion with IL-6 and GM-CSF as indicator. […] It was previously shown that pre-treatment circulating type I IFN (T1IFN) activity predicts non-response to TNFi (Wampler-Muskardin et al., Front Immunol, 2020). Remarkably, no patient with a ratio >1.3 achieved remission or low disease activity. It is also possible to use single cell gene expression analysis to study blood monocytes in RA patients with high vs. low IFN-β-to-α activity ratio. […] Further on, the behaviors of monocytes in the RA chip are investigated by infusing monocytes into the central sinus of the chip, from which monocytes can distribute into the microvessel network and extravasate out of vessel. […] In addition, the effect of circulating T1IFNs on monocyte activation in the RA chip was studied.
The biomimetic Synovium-on-a-Chip (FIG. 4A) contains two areas to mimic the outer layer (lining layer) and an inner layer (sublining layer) of the synovium. […]
To confirm the role of TNF-α in regulating the RA inflammation, monitored first is monocyte dynamics in the RA device which is primed with or without TNF-α. […]

[2] = tested on: RA chip (HUVECs, RA patient derived FLS, RA patient monocyte-derived macrophage); assay: cytokine secretion profile of the RA chip with versus without TNF-α priming; type: cell-based, human
Source text: To study blood and synovial cells from RA patients to understand the biological basis for response/non-response to TNFi, disclosed herein is a microfluidics-based 3D vascularized organ-on-a-chip model of RA. The disclosed microphysiological system integrates key features that replicate in vivo synovial architecture and monitors dynamic interactions between the critical cell types of RA, such as monocyte, monocyte-derived macrophage, and fibroblast-like synoviocytes (FLS), in real time with live-cell imaging. The RA chip is compartmentalized into three functional regions, which are partitioned by regularly spaced trapezoid micropillars that confine cell-embedded hydrogels, by balancing surface tension and capillary forces, to mimic the native in vivo tissue architecture of synovitis. The different tissue regions are a central sinus that is lined with human umbilical vein endothelial cells (HUVECs), a synovial sublining, which contains vessels extending from the central sinus, and a synovial lining region (outer ring) connected with four medium reservoirs for medium supply. HUVECs and RA patient derived FLS, and RA patient monocyte-derived macrophage are infused into different regions sequentially and cultured for 7 days to establish a microvessel network and a layered structure of synovium.
With this established synovium structure on-chip, first profiled is the cytokine environment of the engineered RA chip at two conditions (with TNF-α priming versus without) to validate the inflammation status of the RA chip.
Following the established inflammation in the RA chip, work pivoted to whether the RA inflammation can be maintained on-chip for a long period. The RA chip cultured for over 4 days and quantified inflammatory cytokines secretion with IL-6 and GM-CSF as indicator. […] It was previously shown that pre-treatment circulating type I IFN (T1IFN) activity predicts non-response to TNFi (Wampler-Muskardin et al., Front Immunol, 2020). Remarkably, no patient with a ratio >1.3 achieved remission or low disease activity. […]

For TNF-α, the “monocyte migration dynamics (migration velocity and distance)” value [1] was “promoted monocyte migration dynamics; also recorded: Enhanced migration behaviors”, the “secretion of IL-6 and GM-CSF” value ([2]; RA chip cultured for over 4 days after transient TNF-α treatment) was “generally decreased” and the “secretion of cytokines (IL-6, GM-CSF, IL-8, MCP-1, MCP-3, MIP-3α)” value ([2]; RA chip with TNF-α priming versus without) was “increased secretion”. The “inflammatory environment of the RA chip” value ([2]; primed with TNF-α at an interval of 2-3 days) was “maintained over 7 days”.
